From patent US8309589B2, “Fluorine-containing organosulfur compound and pesticidal composition comprising the same” (Sumitomo Chemical Company, Limited, priority 2007, dated 2012) come the findings set out here.

SMILES strings stand for the structures.

For the test, the system named is Blattalla germanica. Nature of the test: Test Example 4: filter paper with sucrose bait, Blattalla germanica. The class given is in vivo. The settings on record: 500 ppm, 0.7 ml on filter paper; 2 male imagoes; after 6 days. As to the method:
A formulation of any one of the present compounds (2), (3) and (4) obtained according to Formulation Example 10 was diluted with water so that the active ingredient concentration was 500 ppm to obtain a test solution.
A filter paper having a diameter of 5.5 cm was spread on the bottom of a polyethylene cup having a diameter of 5.5 cm and 0.7 ml of the test solution was added dropwise onto the filter paper. As a bait 30 mg of sucrose was uniformly placed on the filter paper. Into the polyethylene cup, 2 male imagoes of Blattalla germanica were released and the cup was sealed with a lid. After 6 days, the number of surviving Blattalla germanica was examined and the death rate of the pest was calculated.

As to `CC(C)(C)c1cc(CSCCC(F)(F)F)no1` [present compound (2), 5-tert-butyl-3-[(3,3,3-trifluoropropylsulfanyl)methyl]isoxazole], the pest death rate amounted to 100%.

Consider `FC(F)(F)CCSCn1cnc(C(F)(F)F)c1` [present compound (3), 4-trifluoromethyl-1-[(3,3,3-trifluoropropylsulfanyl)methyl]-1H-imidazole], for which the pest death rate was determined as 100%.

With `CC(C)(C)n1cc(CSCCC(F)(F)F)cn1` [present compound (4), 1-tert-butyl-4-[(3,3,3-trifluoropropylsulfanyl)methyl]-1H-pyrazole], the pest death rate worked out at 100%.
